Among the data in PubChem BioAssay AID1053121 (Broad Institute, 2014) are AC40 and activation (reporter increase) values, retold here.

The test system of assay [1] is D54 ERlucT glioma cells, NLG luciferase reporter gain-of-signal, 24 h. Briefly: luciferase reporter signal increase in glioma cells, dose response, N-linked glycosylation inhibitor project, D54 ERlucT glioma cells, dry powder, set 6 (AID 1053121).
Experiment in assay [2]: as above
The following applies: D54 ERlucT glioma cells, NLG luciferase reporter gain-of-signal, 24 h; at 19.5 µM (top of the series). In general terms: In a reporter assay the amount or activity of a reporter protein is the signal.

SMILES strings stand for the structures. “And” between values parts separate entries of the source, which are not always exact repeats. Equal entries are not always repeated. The source made the active and inactive calls.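 Rule for the calls: active = fitted curve reaches 40% activation below the top valid dose in every replicate test, signal rising; inconclusive = replicate tests disagree on the call; inactive = all replicate tests inactive, including opposite-direction effects.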

For the compound `COc1cc(Nc2c3c(nc4ccccc24)CCCC3)cc(OC)c1OC`, in assay [1], the AC40 was 3.59 µM. Regarding `Cc1cnc(NC(=O)c2cc(S(=O)(=O)N(C)C)ccc2C2CCCC2)s1`, the AC40 in assay [1] was 2.21 µM.

With `CCN(CC)CCOc1ccc2c(c1)C(=NNC(=O)c1ccccn1)c1cc(OCCN(CC)CC)ccc1-2`, the AC40 in assay [1] is 3.07 µM. As for `CN(C)S(=O)(=O)c1ccc(N2CCCC2)c(C(=O)Nc2ccc(Br)cc2)c1`, in assay [2], the activation (reporter increase) was 32% (inactive). As for `Cc1csc(NC(=O)c2cc(S(=O)(=O)N(C)C)ccc2N2CCCC2)n1`, the AC40 in assay [1] is 0.575 µM. As for `CN(C)CCCN(Cc1cc2ccccc2[nH]c1=O)C(=O)Nc1ccccc1`, the activation (reporter increase) in assay [2] was -2.22% (inactive). Take `Cc1ccccc1NC(=O)c1cc(S(=O)(=O)N(C)C)ccc1N1CCCC1`: in assay [2], the activation (reporter increase) is 8.74% (inactive). Turning to `CN(C)S(=O)(=O)c1ccc(N2CCCC2)c(C(=O)N2CCOCC2)c1`, the activation (reporter increase) in assay [2] was 3.4% (inactive). Consider `CCN(CC)CCC(=O)Nc1cccc2c1C(=O)c1ccccc1C2=O`, for which the AC40 in assay [1] was 0.729 µM. Consider `Cc1cnc(NC(=O)c2cc(S(=O)(=O)N(C)C)ccc2N2CCCC2)s1`, for which the AC40 in assay [1] was 0.421 µM and 0.0693 µM and 0.209 µM. On the same count and under the same terms, the result for `CCN(CC)CCCNc1nc2cc(OC)c(OC)cc2c2nc(-c3ccccc3)nn12` reads 1.66 µM. As for `CN(C)S(=O)(=O)c1ccc(N2CCCC2)c(C(=O)Nc2cccc(F)c2)c1`, the AC40 in assay [1] is 2.61 µM. In the case of `CN(C)CCCN(Cc1cc2ccccc2[nH]c1=O)C(=O)NCc1ccccc1`, in assay [2], the activation (reporter increase) is 0% (inactive). `CC(=O)N1CCC(=O)c2cc3ccccc3cc21`: the AC40 in assay [1] is 2.42 µM. As to `Cc1cnc(NC(=O)c2cc(S(=O)(=O)NCc3ccccc3)ccc2N2CCCC2)s1`, the AC40 in assay [1] is 3.67 µM. As for `COc1cccc2sc(NC(=O)c3cc(S(=O)(=O)N(C)C)ccc3N3CCCC3)nc12`, the activation (reporter increase) in assay [2] is 5.88% (inactive). Regarding `CN(C)S(=O)(=O)c1ccc(N2CCCC2)c(C(=O)Nc2ccccc2)c1`, the AC40 in assay [1] is 1.08 µM. On the same count and under the same terms, the result for `CCOc1ccc(NC(=O)c2cc(OC)nc3ccccc23)cc1` reads 0.41 µM. On to `COc1ccccc1CSc1nnc(-c2ccccc2)o1`, for which, in assay [2], the activation (reporter increase) is -67.6% (inactive). Take `COc1ccc(NC(=O)C(=O)c2cn(CC(=O)N3CCCC3)c3ccccc23)cc1`: in assay [1], the AC40 is 0.0621 µM. As to `Cc1ccc(CCC(=O)Nc2ncc(Cc3cc(Cl)ccc3Cl)s2)o1`, in assay [1], the AC40 is 0.205 µM.

Take `CC(=O)c1cccc(NC(=O)CSc2ncc(C(=O)Nc3ccccc3)c(=O)n2C)c1`: the AC40 in assay [1] is 6.87 µM. Turning to `Cc1cnc(NC(=O)c2cccc(S(=O)(=O)N(C)C)c2)s1`, the activation (reporter increase) in assay [2] was -7.17% (inactive).

In the case of `CN(C)C(=O)c1cc(S(=O)(=O)N(C)C)ccc1N1CCCC1`, the activation (reporter increase) in assay [2] was 8.83% (inactive).

Turning to `Cc1cnc(NC(=O)c2cc(S(=O)(=O)N(CC(C)C)CC(C)C)ccc2N2CCCC2)s1`, the activation (reporter increase) in assay [2] was -35.5% (inactive). For `CN(C)S(=O)(=O)c1ccc(N2CCCC2)c(C(=O)Nc2ccncc2)c1`, the activation (reporter increase) in assay [2] is 16.1% (inactive).

As for `CCOc1ccc(S(=O)(=O)NCc2ccccn2)cc1NC(=O)c1ccccc1F`, the AC40 in assay [1] was 1.37 µM. On to `Cc1[nH][nH]c(=O)c1C(c1ccc(-c2ccc(Cl)c(Cl)c2)o1)c1c(C)[nH][nH]c1=O`, for which the AC40 in assay [1] was 1.02 µM. On to `O=C(Cc1ccccc1)c1nnc(-c2ccccc2)o1`, for which the activation (reporter increase) in assay [2] was -94.1% (inactive). Regarding `CCOC(=O)COc1cccc2c(=O)n(CC(=O)NCc3ccccc3)ccc12`, in assay [1], the AC40 was 0.121 µM. With `CC(=O)c1ccc(Oc2cc(C)nc(-n3nc(C)cc3C)n2)cc1`, the AC40 in assay [1] was 0.645 µM.

As to `Cc1cnc(NC(=O)c2cc(S(=O)(=O)N(C)C)ccc2N(C)C)s1`, the AC40 in assay [1] was 5.2 µM. `CCCOC(=O)c1[nH]c2c(c1C)C(=O)CC(c1cccs1)C2` (stereo not given): the AC40 in assay [1] is 1.5 µM.

Consider `Cc1cc(NC(=O)CSc2nc(-c3ccco3)cc(C(F)(F)F)n2)no1`, for which the AC40 in assay [1] was 0.434 µM. In the case of `CCCCOc1ccccc1C1CC(=O)NC2=C1C(=O)CCC2` (stereo not given), the AC40 in assay [1] is 0.948 µM. Still for that read-out and setting: the result for `Cc1ccc(/C=N/NC(=O)C2COc3ccccc3O2)s1` (stereo not given) reads 1.21 µM; that for `CCN(CC)c1ccc(S(=O)(=O)N(C)C)cc1C(=O)Nc1ncc(C)s1`, 3.21 µM; that for `COC(=O)c1cn(C(=O)c2ccc(OC)cc2)c2ccccc12`, 1.21 µM.

Turning to `Cc1ccc(NC(=O)c2cc(S(=O)(=O)N(C)C)ccc2N2CCCC2)cc1`, the AC40 in assay [1] is 1.24 µM.

For `Cc1ccc2cc(CN(CCCN(C)C)C(=O)NCc3ccccc3)c(=O)[nH]c2c1C`, the AC40 in assay [1] is 2.68 µM. For the compound `Cc1cccc(C)c1OCCNC(=O)C(=O)NCc1ccco1`, the AC40 in assay [1] is 3.62 µM.

Regarding `COc1ccccc1OCC(=O)NNC(=O)c1ccoc1C`, in assay [1], the AC40 was 0.633 µM. Same read-out and setting: for `CN(C)S(=O)(=O)c1ccc(N2CCCC2)c(C(=O)Nc2nc3ccccc3s2)c1` the value was 0.467 µM. On to `COc1cc(C(=O)NCCOc2cc(C)cc(C)c2)cc(OC)c1OC`, for which the AC40 in assay [1] was 1.85 µM. For `COc1ccc(NC(=O)c2cc(S(=O)(=O)N(C)C)ccc2N2CCCC2)cc1`, the AC40 in assay [1] is 10.3 µM.

In the case of `COc1cccc(N2CCN(C(=O)c3ccc(CS(=O)c4ccc(C)cc4)o3)CC2)c1` (stereo not given), the AC40 in assay [1] is 0.237 µM. Take `CCOC(=O)c1ccc(Oc2cc(C)nc(SC)n2)cc1`: the AC40 in assay [1] is 3.89 µM.

For the compound `Cc1ccc(Oc2ccc(S(=O)(=O)N3CCOCC3)cc2C(N)=O)c(-n2nc3ccccc3n2)c1`, the AC40 in assay [1] was 3.4 µM. Regarding `Cc1nnc(NC(=O)c2cc(S(=O)(=O)N(C)C)ccc2N2CCCC2)s1`, the AC40 in assay [1] is 4.57 µM.

Consider `Cc1cnc(NC(=O)c2cc(S(=O)(=O)N(C)C)ccc2N2CCCCC2)s1`, for which the AC40 in assay [1] was 13.7 µM. Same read-out and setting: for `CCC1=Nc2cc(C(=O)NCCCOC)ccc2Sc2ccccc21` the value was 0.404 µM; for `CCn1c2ccccc2c2cc(NC(=O)c3cc(OC)c(OC)c(OC)c3)ccc21`, 0.0419 µM. On to `Cc1cnc(NC(=O)c2cc(S(=O)(=O)N3CCCCC3)ccc2N2CCCC2)s1`, for which the AC40 in assay [1] is 7.07 µM.

On to `O=C(N/N=C/c1ccc(Cl)cc1)c1sccc1OCc1ccc(F)cc1`, for which the AC40 in assay [1] is 0.839 µM. Take `CC(=O)N[C@H]1[C@@H](O[C@@H]2OC(C[C@@H](O)C3O[C@@H](n4ccc(=O)[nH]c4=O)[C@H](O)[C@@H]3O)[C@H](O)[C@H](O)[C@H]2NC(=O)/C=C/CCCCCCCCCCC(C)C)O[C@H](CO)[C@@H](O)[C@@H]1O` (stereo not given in full): in assay [1], the AC40 was 0.278 µM.

For the compound `COc1cc(-c2nnc(SCC3(c4ccc(Br)cc4)OCCO3)o2)cc(OC)c1OC`, the AC40 in assay [1] is 1.34 µM. Same read-out and setting: for `Cc1cnc(NC(=O)c2cc(S(=O)(=O)N(C)C)ccc2N2CCC2)s1` the value was 0.364 µM; for `CN(C)S(=O)(=O)c1ccc(N2CCCC2)c(C(=O)Nc2nccs2)c1`, 1.91 µM.

On to `Cc1ccc(C(=O)c2cc([N+](=O)[O-])ccc2N2CCOCC2)cc1C`, for which, in assay [1], the AC40 was 1.1 µM. Consider `Cc1cnc(NC(=O)c2cc(S(=O)(=O)N3CCCC3)ccc2N2CCCC2)s1`, for which, in assay [1], the AC40 was 0.934 µM. In the case of `Cc1cc(C)cc(C(=O)N2CC(=O)Nc3ccccc32)c1`, the AC40 in assay [1] was 12.1 µM. Take `CCN(CC)S(=O)(=O)c1ccc(N2CCCC2)c(C(=O)Nc2ncc(C)s2)c1`: the AC40 in assay [1] was 12 µM. For `Cc1cnc(NC(=O)c2cc(S(=O)(=O)N3CCOCC3)ccc2N2CCCC2)s1`, in assay [1], the AC40 is 0.307 µM.

With `Nc1nc(=S)c2ncn([C@@H]3O[C@H](CO)[C@@H](O)[C@H]3O)c2[nH]1`, in assay [1], the AC40 is 0.771 µM. As to `Cc1cnc(NC(=O)c2cc(S(=O)(=O)N3CCNCC3)ccc2N2CCCC2)s1`, the AC40 in assay [1] is 9.46 µM.
